# Test system: patients with COPD
# Assay: Pulmonary function tests (spirometry FEV1, FVC), tetomilast with inhaled albuterol, crossover study (Example 1)
# Format: in vivo, human
# Details: for Estimated Treatment Effect, change from baseline in FEV1 (tetomilast versus placebo) / Estimated Treatment Effect, change from baseline in FVC (tetomilast versus placebo) / LS Mean change from baseline in FEV1 (repeated measures ANOVA) / LS Mean change from baseline in FVC (repeated measures ANOVA) / Mean (SD) change from baseline in FEV1 / Mean (SD) change from baseline in FVC: steady-state (predose) baseline, Day 8/23; for Estimated Treatment Effect, change from baseline in FEV1 (tetomilast versus placebo) / Estimated Treatment Effect, change from baseline in FVC (tetomilast versus placebo): both with inhaled albuterol; for LS Mean change from baseline in FEV1 (repeated measures ANOVA) / LS Mean change from baseline in FVC (repeated measures ANOVA) / Mean (SD) change from baseline in FEV1 / Mean (SD) change from baseline in FVC: tetomilast 50 mg QD + inhaled albuterol
# Protocol: Pulmonary function tests were conducted throughout the study to monitor the subjects' respiratory status. Flow volume curves were collected via spirometry. Combivent® (Boehringer Ingleheim Pharmaceuticals, Inc., Ridgefield Conn.), which was used for short-acting rescues as needed throughout the studies described below, was withheld for 6 hours prior to any spirometric testing. Spirometry testing was performed at screening, baseline (Day 0), and at specific times during the treatment period. Each subject could have up to 5 spirometric readings at any study time point. Spirometric readings were performed using equipment from the central provider, Quantum Research, Inc. (Louisville, Colo.). All spirometry readings were recorded and sent to Quantum Research, Inc. for analysis
# For the spirometric readings, the best effort was reported as follows. The highest acceptable forced expiratory volume in one second (FEV1) value was selected as the “best” of the given test session. If two or more FEV1 values were tied as highest, the sum of FEV1 and forced vital capacity (FVC) for those efforts was used. If both conditions were equal between the two efforts, the values reported were taken from the effort that occurred first, chronologically, based on date and time of the effort.
# This study was a multicenter, randomized, double-blind, placebo-controlled, crossover, multiple dose, outpatient study in 27 patients with COPD. All subjects underwent a 28-day washout from inhaled corticosteroids and/or long-acting bronchodilators and/or continuous oxygen therapy (≧16 hours per day) and a 7-day washout from oral beta2-agonists and/or oral theophylline salts prior to baseline. Randomized subjects received an 8-day administration of oral placebo or tetomilast 50 mg oral dose (2×25 mg tablets) once daily (QD). On study Day 8, four consecutive doses of inhaled albuterol (90 μg albuterol base per puff) were given via a metered dose inhaler (MDI) and holding chamber (Ventolin®, GlaxoSmithKline, Research Triangle Park, N.C.), one dose every 30 minutes over the course of 90 minutes at doses of 90 μg+90 μg+180 μg+360 μg for a total dose of 720 μg (albuterol base) or 8 puffs.
# Subjects entered a 7-day washout period (study days 9 through 15) and were then crossed over to the alternate treatment arm (placebo or tetomilast 50 mg oral dose). On study [0105] Day 23, the inhaled albuterol multiple dosing was repeated.
# On Days 1-6 and 17-21, subjects were instructed to take their oral study medication (placebo or tetomilast 50 mg) QD with 8 ounces of water immediately before breakfast. Subjects assigned to the placebo arm received two placebo tablets QD. On Days 7, 8, 16, 22, and 23, subjects took their oral medication (placebo or tetomilast 50 mg) at the clinic in the presence of the study staff.
# Combivent® inhalation aerosol use was allowed for short-acting rescue as needed throughout the study except on study days where PK samples were collected, on days when the multiple doses of inhaled albuterol were administered in the clinic, and/or on days when spirometry testing was performed. On all study days where PK samples were collected, Combivent® was withheld 6 hours prior to the PK draw. Additionally, on study Days 8 and 23 (when the multiple doses of inhaled albuterol were administered in the clinic), Combivent® was withheld 6 hours prior to PK assessment and throughout the duration of the clinic visit. Combivent® was withheld for six hours prior to spirometry testing. The recommended dose of Combivent® Inhalation Aerosol is two inhalations four times a day. In this study, subjects were permitted to take additional inhalations as required; however, the total number of inhalations was not to exceed 12 in 24 hours. Subjects were to “test-spray” three times before using for the first time and in cases where the aerosol had not been used for more than 24 hours. […]
smiles,measurement,setting,value
"CCOc1ccc(-c2nc(-c3cccc(C(=O)O)n3)cs2)cc1OCC [Tetomilast, 2-(3,4-diethoxyphenyl)-4-(2-carboxy-6-pyridyl)thiazole]","FVC steady-state (predose) baseline value, Mean (SD)","predose Day 8/23, on tetomilast 50 mg QD, prior to inhaled albuterol",2.67 (0.88) L
same,"FEV1 steady-state (predose) baseline value, Mean","predose Day 8/23, on tetomilast 50 mg QD, prior to inhaled albuterol, Table 3",1.40 L
same,"FVC steady-state (predose) baseline value, Mean","predose Day 8/23, on tetomilast 50 mg QD, prior to inhaled albuterol, Table 4",2.67 L
same,"Estimated Treatment Effect, change from baseline in FEV1 (tetomilast versus placebo)",5 min postdose,-0.01 L
same,"Estimated Treatment Effect, change from baseline in FVC (tetomilast versus placebo)",5 min postdose,0.01 L
same,LS Mean change from baseline in FEV1 (repeated measures ANOVA),5 min postdose,0.16 L
same,LS Mean change from baseline in FVC (repeated measures ANOVA),5 min postdose,0.30 L
same,Mean (SD) change from baseline in FEV1,5 min postdose,0.16 (0.09) L
same,Mean (SD) change from baseline in FVC,5 min postdose,0.27 (0.25) L
same,"Estimated Treatment Effect, change from baseline in FEV1 (tetomilast versus placebo)",25 min postdose,0.03 L
same,"Estimated Treatment Effect, change from baseline in FVC (tetomilast versus placebo)",25 min postdose,0.03 L
same,LS Mean change from baseline in FEV1 (repeated measures ANOVA),25 min postdose,0.19 L
same,LS Mean change from baseline in FVC (repeated measures ANOVA),25 min postdose,0.29 L
same,Mean (SD) change from baseline in FEV1,25 min postdose,0.19 (0.16) L
same,Mean (SD) change from baseline in FVC,25 min postdose,0.29 (0.37) L
same,"Estimated Treatment Effect, change from baseline in FEV1 (tetomilast versus placebo)",35 min postdose,0.03 L
same,"Estimated Treatment Effect, change from baseline in FVC (tetomilast versus placebo)",35 min postdose,0.01 L
same,LS Mean change from baseline in FEV1 (repeated measures ANOVA),35 min postdose,0.24 L
same,LS Mean change from baseline in FVC (repeated measures ANOVA),35 min postdose,0.39 L
same,Mean (SD) change from baseline in FEV1,35 min postdose,0.24 (0.18) L
same,Mean (SD) change from baseline in FVC,35 min postdose,0.39 (0.36) L
same,"Estimated Treatment Effect, change from baseline in FEV1 (tetomilast versus placebo)",55 min postdose,0.05 L
same,"Estimated Treatment Effect, change from baseline in FVC (tetomilast versus placebo)",55 min postdose,0.07 L
same,LS Mean change from baseline in FEV1 (repeated measures ANOVA),55 min postdose,0.27 L
same,LS Mean change from baseline in FVC (repeated measures ANOVA),55 min postdose,0.37 L
same,Mean (SD) change from baseline in FEV1,55 min postdose,0.26 (0.20) L
same,Mean (SD) change from baseline in FVC,55 min postdose,0.36 (0.37) L
same,"Estimated Treatment Effect, change from baseline in FEV1 (tetomilast versus placebo)",65 min postdose,0.06 L
same,"Estimated Treatment Effect, change from baseline in FVC (tetomilast versus placebo)",65 min postdose,0.13 L
same,LS Mean change from baseline in FEV1 (repeated measures ANOVA),65 min postdose,0.30 L
same,LS Mean change from baseline in FVC (repeated measures ANOVA),65 min postdose,0.50 L
same,Mean (SD) change from baseline in FEV1,65 min postdose,0.30 (0.20) L
same,Mean (SD) change from baseline in FVC,65 min postdose,0.50 (0.40) L
same,"Estimated Treatment Effect, change from baseline in FEV1 (tetomilast versus placebo)",85 min postdose,0.05 L
same,"Estimated Treatment Effect, change from baseline in FVC (tetomilast versus placebo)",85 min postdose,0.05 L
same,LS Mean change from baseline in FEV1 (repeated measures ANOVA),85 min postdose,0.31 L
same,LS Mean change from baseline in FVC (repeated measures ANOVA),85 min postdose,0.45 L
same,Mean (SD) change from baseline in FEV1,85 min postdose,0.31 (0.20) L
same,Mean (SD) change from baseline in FVC,85 min postdose,0.45 (0.39) L
same,"Estimated Treatment Effect, change from baseline in FEV1 (tetomilast versus placebo)",95 min postdose,0.05 L
same,"Estimated Treatment Effect, change from baseline in FVC (tetomilast versus placebo)",95 min postdose,0.12 L
same,LS Mean change from baseline in FEV1 (repeated measures ANOVA),95 min postdose,0.34 L
same,LS Mean change from baseline in FVC (repeated measures ANOVA),95 min postdose,0.53 L
same,Mean (SD) change from baseline in FEV1,95 min postdose,0.34 (0.21) L
same,Mean (SD) change from baseline in FVC,95 min postdose,0.53 (0.42) L
same,"Estimated Treatment Effect, change from baseline in FEV1 (tetomilast versus placebo)",115 min postdose,0.05 L
same,"Estimated Treatment Effect, change from baseline in FVC (tetomilast versus placebo)",115 min postdose,0.11 L
same,LS Mean change from baseline in FEV1 (repeated measures ANOVA),115 min postdose,0.33 L
same,LS Mean change from baseline in FVC (repeated measures ANOVA),115 min postdose,0.51 L
same,Mean (SD) change from baseline in FEV1,115 min postdose,0.33 (0.20) L
same,Mean (SD) change from baseline in FVC,115 min postdose,0.51 (0.48) L
same,"Estimated Treatment Effect, change from baseline in FEV1 (tetomilast versus placebo)",175 min postdose,0.06 L
same,"Estimated Treatment Effect, change from baseline in FVC (tetomilast versus placebo)",175 min postdose,0.07 L
same,LS Mean change from baseline in FEV1 (repeated measures ANOVA),175 min postdose,0.34 L
same,LS Mean change from baseline in FVC (repeated measures ANOVA),175 min postdose,0.50 L
same,Mean (SD) change from baseline in FEV1,175 min postdose,0.34 (0.21) L
same,Mean (SD) change from baseline in FVC,175 min postdose,0.50 (0.38) L
same,"Estimated Treatment Effect, change from baseline in FEV1 (tetomilast versus placebo)",235 min postdose,0.04 L
same,"Estimated Treatment Effect, change from baseline in FVC (tetomilast versus placebo)",235 min postdose,0.01 L
same,LS Mean change from baseline in FEV1 (repeated measures ANOVA),235 min postdose,0.32 L
same,LS Mean change from baseline in FVC (repeated measures ANOVA),235 min postdose,0.39 L
same,Mean (SD) change from baseline in FEV1,235 min postdose,0.32 (0.25) L
same,Mean (SD) change from baseline in FVC,235 min postdose,0.40 (0.50) L
same,"Estimated Treatment Effect, change from baseline in FEV1 (tetomilast versus placebo)",295 min postdose,0.03 L
same,"Estimated Treatment Effect, change from baseline in FVC (tetomilast versus placebo)",295 min postdose,0.11 L
same,LS Mean change from baseline in FEV1 (repeated measures ANOVA),295 min postdose,0.23 L
same,LS Mean change from baseline in FVC (repeated measures ANOVA),295 min postdose,0.35 L
same,Mean (SD) change from baseline in FEV1,295 min postdose,0.23 (0.26) L
same,Mean (SD) change from baseline in FVC,295 min postdose,0.35 (0.50) L
same,"Estimated Treatment Effect, change from baseline in FEV1 (tetomilast versus placebo)",355 min postdose,0.11 L
same,"Estimated Treatment Effect, change from baseline in FVC (tetomilast versus placebo)",355 min postdose,0.17 L
same,LS Mean change from baseline in FEV1 (repeated measures ANOVA),355 min postdose,0.23 L
same,LS Mean change from baseline in FVC (repeated measures ANOVA),355 min postdose,0.32 L
same,Mean (SD) change from baseline in FEV1,355 min postdose,0.23 (0.22) L
same,Mean (SD) change from baseline in FVC,355 min postdose,0.32 (0.43) L

# From patent US20120010179A1, “Methods of using a thiazole derivative” (priority 2006, published 2012)
